The first series concerns ABUTH: velvetleaf (Abutilon theophrasti). Put plainly: Post-Emergent Test I herbicidal activity. It counts as in vivo. The settings on record: Abutilon theophrasti, post-emergence, 336 h, Table 3, 140 g ai/ha, read-out: Visual Growth Reduction (%)-14 Days after Application ABUTH. An outline of the steps:
(§1)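 Post-emergence foliar application to young greenhouse plants at 187 L/ha, five rates down to 1/16× of the top rate. Percent injury is assessed visually two weeks later against untreated plants.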
`COC(=O)c1nc(-c2ccc(Cl)c(OC)c2F)cc(NC(C)=O)c1OC` [Compound 3, methyl 4-acetamido-6-(4-chloro-2-fluoro-3-methoxyphenyl)-3-methoxypicolinate]: the pest or weed control at 140 g/ha was determined as 100%.

`COC(=O)c1nc(-c2ccc(C3CC3)nc2)c(F)c(N)c1OC` [Compound 76, methyl 4-amino-6′-cyclopropyl-3-fluoro-5-methoxy-[2,3′-bipyridine]-6-carboxylate]: the pest or weed control at 140 g/ha is 85%.

Turning to `C=Cc1nc(C(=O)O)c(OC)c(N)c1F` [Compound 95, 4-amino-5-fluoro-3-methoxy-6-vinylpicolinic acid], the pest or weed control at 140 g/ha was found to be 0%.

Still in this series, the particulars now being: Abutilon theophrasti, post-emergence, 336 h, Table 3, 280 g ai/ha, read-out: Visual Growth Reduction (%)-14 Days after Application ABUTH.
Consider `CNc1cc(-c2ccc(Cl)cc2)nc(C(=O)OC)c1N` [Compound 86, Methyl 3-amino-6-(4-chlorophenyl)-4-(methylamino)picolinate], for which the pest or weed control at 280 g/ha came to 40%.

The subject of a further series is CHEAL: lambsquarters (Chenopodium album). Put plainly: Post-Emergent Test I herbicidal activity. The format is in vivo. To be noted: Chenopodium album, post-emergence, 336 h, Table 3, 140 g ai/ha, read-out: Visual Growth Reduction (%)-14 Days after Application CHEAL. The essentials:
as §1
In the case of `COc1c(C(=O)O)nc(-c2ccc(F)cc2)c(F)c1N` [Compound 52], the pest or weed control at 140 g/ha is 100%.

Turning to `COC(=O)c1nc(-c2ccc(Cl)c(OC)c2F)cc(NC(C)=O)c1OC` [Compound 3, methyl 4-acetamido-6-(4-chloro-2-fluoro-3-methoxyphenyl)-3-methoxypicolinate], the pest or weed control at 140 g/ha is 100%.

Regarding `COC(=O)c1nc(-c2ccc(C3CC3)nc2)c(F)c(N)c1OC` [Compound 76, methyl 4-amino-6′-cyclopropyl-3-fluoro-5-methoxy-[2,3′-bipyridine]-6-carboxylate], the pest or weed control at 140 g/ha was determined as 80%.

As for `C=Cc1nc(C(=O)O)c(OC)c(N)c1F` [Compound 95, 4-amino-5-fluoro-3-methoxy-6-vinylpicolinic acid], the pest or weed control at 140 g/ha amounted to 60%.

Staying with this series, now noted: Chenopodium album, post-emergence, 336 h, Table 3, 280 g ai/ha, read-out: Visual Growth Reduction (%)-14 Days after Application CHEAL.
Turning to `CNc1cc(-c2ccc(Cl)cc2)nc(C(=O)OC)c1N` [Compound 86, Methyl 3-amino-6-(4-chlorophenyl)-4-(methylamino)picolinate], the pest or weed control at 280 g/ha worked out at 95%.

For a further series, the system named is EPHHL: wild poinsettia (Euphorbia heterophylla). Put plainly: Post-Emergent Test I herbicidal activity. The format is in vivo. The settings on record: post-emergence, 336 h, Table 3, 140 g ai/ha, read-out: Visual Growth Reduction (%)-14 Days after Application EPHHL. An outline of the steps:
as §1
For `COc1c(C(=O)O)nc(-c2ccc(F)cc2)c(F)c1N` [Compound 52], the pest or weed control at 140 g/ha stood at 100%.

Turning to `COC(=O)c1nc(-c2ccc(Cl)c(OC)c2F)cc(NC(C)=O)c1OC` [Compound 3, methyl 4-acetamido-6-(4-chloro-2-fluoro-3-methoxyphenyl)-3-methoxypicolinate], the pest or weed control at 140 g/ha is 100%.

On to `COC(=O)c1nc(-c2ccc(C3CC3)nc2)c(F)c(N)c1OC` [Compound 76, methyl 4-amino-6′-cyclopropyl-3-fluoro-5-methoxy-[2,3′-bipyridine]-6-carboxylate], for which the pest or weed control at 140 g/ha is 97%.

On to `C=Cc1nc(C(=O)O)c(OC)c(N)c1F` [Compound 95, 4-amino-5-fluoro-3-methoxy-6-vinylpicolinic acid], for which the pest or weed control at 140 g/ha came out at 30%.

The series is the same for the next values; noted with them: post-emergence, 336 h, Table 3, 280 g ai/ha, read-out: Visual Growth Reduction (%)-14 Days after Application EPHHL.
With `CNc1cc(-c2ccc(Cl)cc2)nc(C(=O)OC)c1N` [Compound 86, Methyl 3-amino-6-(4-chlorophenyl)-4-(methylamino)picolinate], the pest or weed control at 280 g/ha came out at 50%.

Another series has as its system CYPES: yellow nutsedge (Cyperus esculentus). In words: Post-Emergent Test I herbicidal activity. It counts as in vivo. The settings on record: post-emergence, 336 h, Table 3, 140 g ai/ha, read-out: Visual Growth Reduction (%)-14 Days after Application CYPES. The essentials: as §1
Consider `COc1c(C(=O)O)nc(-c2ccc(F)cc2)c(F)c1N` [Compound 52], for which the pest or weed control at 140 g/ha is 100%.

In the case of `COC(=O)c1nc(-c2ccc(Cl)c(OC)c2F)cc(NC(C)=O)c1OC` [Compound 3, methyl 4-acetamido-6-(4-chloro-2-fluoro-3-methoxyphenyl)-3-methoxypicolinate], the pest or weed control at 140 g/ha came to 0%.

Take `COC(=O)c1nc(-c2ccc(C3CC3)nc2)c(F)c(N)c1OC` [Compound 76, methyl 4-amino-6′-cyclopropyl-3-fluoro-5-methoxy-[2,3′-bipyridine]-6-carboxylate]: the pest or weed control at 140 g/ha is 95%.

As to `C=Cc1nc(C(=O)O)c(OC)c(N)c1F` [Compound 95, 4-amino-5-fluoro-3-methoxy-6-vinylpicolinic acid], the pest or weed control at 140 g/ha was 0%.

Still in this series, the particulars now being: post-emergence, 336 h, Table 3, 280 g ai/ha, read-out: Visual Growth Reduction (%)-14 Days after Application CYPES.
Take `CNc1cc(-c2ccc(Cl)cc2)nc(C(=O)OC)c1N` [Compound 86, Methyl 3-amino-6-(4-chlorophenyl)-4-(methylamino)picolinate]: the pest or weed control at 280 g/ha was found to be 0%.

In another series the test system is ZEAMX: corn (Zea mays). Put plainly: Post-Emergent Test I herbicidal activity. It counts as in vivo. To be noted: Zea mays, post-emergence, 336 h, Table 3, 140 g ai/ha, read-out: Visual Growth Reduction (%)-14 Days after Application ZEAMX. An outline of the steps: as §1
Regarding `COc1c(C(=O)O)nc(-c2ccc(F)cc2)c(F)c1N` [Compound 52], the pest or weed control at 140 g/ha was determined as 50%.

In the case of `COC(=O)c1nc(-c2ccc(Cl)c(OC)c2F)cc(NC(C)=O)c1OC` [Compound 3, methyl 4-acetamido-6-(4-chloro-2-fluoro-3-methoxyphenyl)-3-methoxypicolinate], the pest or weed control at 140 g/ha is 10%.

As for `COC(=O)c1nc(-c2ccc(C3CC3)nc2)c(F)c(N)c1OC` [Compound 76, methyl 4-amino-6′-cyclopropyl-3-fluoro-5-methoxy-[2,3′-bipyridine]-6-carboxylate], the pest or weed control at 140 g/ha turned out to be 50%.

As for `C=Cc1nc(C(=O)O)c(OC)c(N)c1F` [Compound 95, 4-amino-5-fluoro-3-methoxy-6-vinylpicolinic acid], the pest or weed control at 140 g/ha was 0%.

The series is the same for the next values; noted with them: Zea mays, post-emergence, 336 h, Table 3, 280 g ai/ha, read-out: Visual Growth Reduction (%)-14 Days after Application ZEAMX.
`CNc1cc(-c2ccc(Cl)cc2)nc(C(=O)OC)c1N` [Compound 86, Methyl 3-amino-6-(4-chlorophenyl)-4-(methylamino)picolinate]: the pest or weed control at 280 g/ha was found to be 0%.

A further series relates to ECHCG: barnyardgrass (Echinochloa crus-galli). In words: Post-Emergent Test I herbicidal activity. It counts as in vivo. To be noted: post-emergence, 336 h, Table 3, 140 g ai/ha, read-out: Visual Growth Reduction (%)-14 Days after Application ECHCG. The essentials: as §1
As for `COc1c(C(=O)O)nc(-c2ccc(F)cc2)c(F)c1N` [Compound 52], the pest or weed control at 140 g/ha was 60%.

With `COC(=O)c1nc(-c2ccc(Cl)c(OC)c2F)cc(NC(C)=O)c1OC` [Compound 3, methyl 4-acetamido-6-(4-chloro-2-fluoro-3-methoxyphenyl)-3-methoxypicolinate], the pest or weed control at 140 g/ha amounted to 0%.

As to `COC(=O)c1nc(-c2ccc(C3CC3)nc2)c(F)c(N)c1OC` [Compound 76, methyl 4-amino-6′-cyclopropyl-3-fluoro-5-methoxy-[2,3′-bipyridine]-6-carboxylate], the pest or weed control at 140 g/ha stood at 0%.

Consider `C=Cc1nc(C(=O)O)c(OC)c(N)c1F` [Compound 95, 4-amino-5-fluoro-3-methoxy-6-vinylpicolinic acid], for which the pest or weed control at 140 g/ha amounted to 0%.

Another series has as its system ORYSA: rice (Oryza sativa). Put plainly: Post-Emergent Test I herbicidal activity. It counts as in vivo. To be noted: post-emergence, 336 h, Table 3, 140 g ai/ha, read-out: Visual Growth Reduction (%)-14 Days after Application ORYSA. The essentials:
as §1
With `COc1c(C(=O)O)nc(-c2ccc(F)cc2)c(F)c1N` [Compound 52], the pest or weed control at 140 g/ha was determined as 0%.

As to `COC(=O)c1nc(-c2ccc(Cl)c(OC)c2F)cc(NC(C)=O)c1OC` [Compound 3, methyl 4-acetamido-6-(4-chloro-2-fluoro-3-methoxyphenyl)-3-methoxypicolinate], the pest or weed control at 140 g/ha was determined as 0%.

For `COC(=O)c1nc(-c2ccc(C3CC3)nc2)c(F)c(N)c1OC` [Compound 76, methyl 4-amino-6′-cyclopropyl-3-fluoro-5-methoxy-[2,3′-bipyridine]-6-carboxylate], the pest or weed control at 140 g/ha stood at 0%.

For `C=Cc1nc(C(=O)O)c(OC)c(N)c1F` [Compound 95, 4-amino-5-fluoro-3-methoxy-6-vinylpicolinic acid], the pest or weed control at 140 g/ha came to 0%.

Staying with this series, now noted: post-emergence, 336 h, Table 3, 280 g ai/ha, read-out: Visual Growth Reduction (%)-14 Days after Application ORYSA.
In the case of `CNc1cc(-c2ccc(Cl)cc2)nc(C(=O)OC)c1N` [Compound 86, Methyl 3-amino-6-(4-chlorophenyl)-4-(methylamino)picolinate], the pest or weed control at 280 g/ha was determined as 0%.

Test system in another series: not given
Assay: not given
Details: not given
The compound `COC(=O)c1nc(-c2ccc([Si](C)(C)C)cc2F)c(F)c(N)c1OC` gave a melting point of 127 to 129 °C.

`COc1c(C(=O)O)nc(-c2ccc(F)cc2)c(F)c1N` [Compound 52]: the melting point fell in the range of 149 to 151 °C.

For the compound `COC(=O)c1nc(-c2ccc([Si](C)(C)C)c(F)c2F)c(F)c(N)c1OC`, the melting point was 123 to 125 °C.

Turning to `COC(=O)c1nc(-c2cc(F)c([Si](C)(C)C)cc2F)c(F)c(N)c1OC`, the melting point lay in the range of 137 to 139 °C.

`COC(=O)c1nc(-c2ccc(Cl)c(OC)c2F)cc(N)c1OC(F)F` [Compound 9]: the melting point lay in the range of 162 to 164 °C.

As to `CNc1cc(-c2ccc(Cl)cc2)nc(C(=O)OC)c1N` [Compound 86, Methyl 3-amino-6-(4-chlorophenyl)-4-(methylamino)picolinate], the melting point was in the range of 178 to 200 °C.

The record behind these values is US9518018B2, “3-alkoxy, thioalkyl and amino-4-amino-6-(substituted)picolinates and their use as herbicides” (Dow AgroSciences LLC, priority 2011, dated 2016).
